Laboratory results taken from US10870858B2 (priority 2014, dated 2020).

Tested on: stably-integrated TK strains
Assay: FUdR counterselection of TK versus tk cells on SC media
Format: cell-based, Saccharomyces
Conditions: 50 μg/mL FUdR in synthetic complete (SC) media
Description: With a stably integrated copy of HSV-TK in each of several genomes, we were able to evaluate counterselection media conditions. […] As an initial test of our ability to recover newly generated tk wild-type cells, we transformed a strain of S. kudriavzevii that had regions of identical sequence on either side of its hoΔ::NatMX locus with TkMX PCR product and selected for cells resistant to the antifolate drugs (FIG. 4A). When counterselection with SC+FUdR media was conducted, only cells that had deleted the TkMX marker by homologous recombination survived and yielded colonies resistant to FUdR (FIG. 4B).

For O=c1[nH]c(=O)n([C@H]2C[C@H](O)[C@@H](CO)O2)cc1F [FUdR, 5-fluorodeoxyuridine], the “growth of stably-integrated TK strains” value was “sufficient to inhibit growth” and the “growth of tk wild-type cells” value was “allow growth”.
